Tests used:
SARS-CoV-2 PLpro = target: T1, SARS-CoV-2 PLpro (Severe acute respiratory syndrome coronavirus 2, UniProt P0DTD1); test: IC50 inhibitory assay, fluorogenic substrate cleavage by PLpro; assay type: biochemical; settings: SARS-CoV-2 PLpro 0.1 μM; substrate 10 μM; pH 8.1; 37 °C; 10 min preincubation
T1 construct: The papain-like protease domain (PLpro) of SARS-CoV-2 (SCoV2)
Method: The inhibitory activities of compounds against SARS-CoV-2 PLpro were determined in a reaction buffer containing 20 mM HEPES, 40 mM NaCl, 5% glycerol, 2 mM DTT (freshly added before the measurements), pH 8.1, at 37 °C. A fluorescent substrate of SARS-CoV-2 PLpro (Z-Arg-leu-Arg-Gly-Gly-[…]AMC; Biosyntan, Berlin) was used, and the fluorescence signal of the cleaved substrate was monitored using a Tecan Spark® fluorescence spectrophotometer at an […] wavelength of 460/360 nm. SARS-CoV-2 PLpro (10 μL per well) was pipetted into a 96-well plate together with reaction buffer reaction buffer (50 μL per well, final enzyme concentration: 0.1 μM). Compounds (10 μL per well) were added at varying concentrations, and plates incubated at 37 °C for 10 mins. Finally, the reaction was initiated by adding 30 μL of the substrate (final concentration: 10 μM) dissolved in the reaction buffer.
FIG. 1: PROTAC and parent ligand for SARS-CoV-2 PLpro in a binary IC50 experiment. C10778A PROTAC (top left), comprising a SARS-CoV-2 PLpro targeting ligand C10778B (bottom left) connected to thalidomide via a C3 alkyl linker. IC50 values have been determined in an in vitro inhibitory binding assay whereby the fluorescence signal resulting from cleavage of a fluorogenic substrate by PLpro is measured. Inhibition of PLpro is associated with reduced cleavage of the fluorogenic substrate. […] Assay conditions: experiments were performed in 20 mM HEPES buffer containing 40 mM NaCl 5% glycerol, 2 mM DTT at pH 8.1. A fluorogenic substrate for PLpro (Z-Arg-leu-Arg-Gly-Gly-AMC) was used to determine the inhibition rate of compounds. Final DMSO concentration in each reaction was 1%. Measurements were performed in triplicate.

SARS-CoV-2 [1] = test: Antiviral assay in infected Vero E6 cells (ATP quantification, Cell Titer Glo); settings: Severe acute respiratory syndrome coronavirus 2, Vero C1008, 72 h; for inhibition at 10 µM: read-out: Antiviral Activity, 10 uM (cell viability assay), 10 uM; for inhibition at 10 µM / inhibition at 50 µM: Vero E6 cells, MOI 0.05, 72 h; for inhibition at 50 µM: read-out: Antiviral Activity, 50 uM (cell viability assay), 50 uM
Method: Vero E6 cells (2×10^4/well) were seeded in 96 well plates one day before the experiment. Pre-treatment, the medium was removed and compounds were added at concentrations varying from 0.1-100 μM. After 24 h incubation, the medium was removed and cells were infected with MOI 0.05 SARS-CoV-2 SARS-CoV2/ZG/297-20. After 1 h infection, the viruses were removed and the same concentration of compounds were added back into the cells. After 72 h incubation at 37 °C, EC50 measurements were made using ATP quantification (Cell Titer Glo).

SARS-CoV-2 [2] = test: Plaque reduction assay in Vero E6 cells; assay type: cell-based; settings: MOI 0.1

Row | Compound | IC50 (SARS-CoV-2 PLpro) [µM] | inhibition at 10 µM (SARS-CoV-2 [1]) [%] | inhibition at 50 µM (SARS-CoV-2 [1]) [%] | plaque reduction (viable virus, in words) (SARS-CoV-2 [2]) | EC50 (SARS-CoV-2 [1]) [µM]
1 | C[C@H](c1cccc2ccccc12)N1CCC(C(=O)NCc2cc(F)cc(NC(=O)N3CCN(CCOc4ccc5c(c4)C(=O)N(C4CCC(=O)NC4=O)C5=O)CC3)c2)CC1 (some centres unmarked) [TS499] | < 1 | < 25 | < 25 | – | –
2 | Cc1ccc(NC(=O)CCNc2cccc3c2C(=O)N(C2CCC(=O)NC2=O)C3=O)cc1C(=O)N[C@H](C)c1cccc2ccccc12 (stereo in doubt) [TS140] | > 25 | < 0 | < 0 | – | –
3 | Cc1ccc(NC(=O)CCCCOc2cc(-c3scnc3C)ccc2CNC(=O)[C@@H]2C[C@@H](O)CN2C(=O)[C@@H](NC(=O)C2(F)CC2)C(C)(C)C)cc1C(=O)N[C@H](C)c1cccc2ccccc12 [TS290] | > 25 | < 0 | < 25 | – | –
4 | Cc1ccc(C(=O)NCCCCN2CCN(C(=O)Nc3cc(F)cc(CNC(=O)C4CCN([C@H](C)c5cccc6ccccc56)CC4)c3)CC2)cc1N1CCC(=O)NC1=O [TS567] | < 10 | < 0 | < 0 | – | –
5 | C[C@H](c1cccc2ccccc12)N1CCC(C(=O)NCc2cc(F)cc(NC(=O)N3CCN(CCCCOc4ccc5c(c4)C(=O)N(C4CCC(=O)NC4=O)C5=O)CC3)c2)CC1 (some centres unmarked) [TS530] | < 10 | < 25 | < 75 | – | –
6 | Cc1ccc(NC(=O)CCCCCCC(=O)N[C@H](C(=O)N2C[C@H](O)C[C@H]2C(=O)NCc2ccc(-c3scnc3C)cc2)C(C)(C)C)cc1C(=O)N[C@H](C)c1cccc2ccccc12 [TS310] | > 25 | < 0 | < 0 | – | –
7 | Cc1ccc(NC(=O)CCCCOc2cc3c4c(cccc4c2)C(=O)N(C2CCC(=O)NC2=O)C3=O)cc1C(=O)N[C@H](C)c1cccc2ccccc12 (some centres unmarked) [TS251] | 10 to 25 | < 0 | < 25 | – | –
8 | C[C@H](c1cccc2ccccc12)N1CCC(C(=O)NCc2cc(F)cc(NC(=O)N3CCN(CCOc4cccc5c4C(=O)N(C4CCC(=O)NC4=O)C5=O)CC3)c2)CC1 (some centres unmarked) [TS445] | < 1 | < 25 | < 25 | – | –
9 | C[C@H](c1cccc2ccccc12)N1CCC(C(=O)NCc2cc(F)cc(NC(=O)N3CCN(CCCCC(=O)N4CCN(c5ccc(C6CCC(=O)NC6=O)cc5)CC4)CC3)c2)CC1 (some centres unmarked) [TS551] | < 10 | < 25 | < 50 | – | –
10 | Cc1ccc(NC(=O)CCOCCOCCOCCOCCNc2cccc3c2C(=O)N(C2CCC(=O)NC2=O)C3=O)cc1C(=O)N[C@H](C)c1cccc2ccccc12 (some centres unmarked) [TS129] | 10 to 25 | < 0 | < 0 | – | –
11 | Cc1ccc(NC2CCNCC2)cc1C(=O)N[C@H](C)c1cccc(-c2ccc(CNC(=O)CCCNc3ccc4c(c3)C(=O)N(C3CCC(=O)NC3=O)C4=O)s2)c1 (some centres unmarked) [Compound C10778E] | < 1 | < 0 | < 0 | – | –
12 | C[C@H](c1cccc2ccccc12)N1CCC(C(=O)NCc2cc(F)cc(NC(=O)N3CCN(CCCCCCOc4ccc5c(c4)C(=O)N(C4CCC(=O)NC4=O)C5=O)CC3)c2)CC1 (some centres unmarked) [TS534] | < 10 | < 25 | > 75 | – | –
13 | C[C@H](c1cccc2ccccc12)N1CCC(C(=O)NCc2cc(F)cc(NC(=O)N3CCN(CCOCCOc4cccc5c4C(=O)N(C4CCC(=O)NC4=O)C5=O)CC3)c2)CC1 (some centres unmarked) [TS424] | < 10 | < 0 | < 0 | – | –
14 | C[C@H](c1cccc2ccccc12)N1CCC(C(=O)NCc2cc(F)cc(NC(=O)N3CCN(CCCCNC(=O)COc4ccc(C5CCC(=O)NC5=O)cc4)CC3)c2)CC1 (some centres unmarked) [TS526] | < 10 | < 0 | < 25 | – | –
15 | C[C@H](c1cccc2ccccc12)N1CCC(C(=O)NCc2cc(F)cc(NC(=O)N3CCN(CCOCCOCCOc4cccc5c4C(=O)N(C4CCC(=O)NC4=O)C5=O)CC3)c2)CC1 (some centres unmarked) [TS420] | < 10 | < 25 | < 0 | – | –
16 | Cc1ncsc1-c1ccc(CNC(=O)[C@@H]2C[C@@H](O)CN2C(=O)[C@@H](NC(=O)CCCCN2CCN(C(=O)Nc3cc(F)cc(CNC(=O)C4CCN([C@H](C)c5cccc6ccccc56)CC4)c3)CC2)C(C)(C)C)cc1 [TS558] | < 10 | < 0 | < 0 | – | –
17 | C[C@H](c1cccc2ccccc12)N1CCC(C(=O)NCc2cc(F)cc(NC(=O)N3CCN(CCCCCCNC(=O)COc4ccc(C5CCC(=O)NC5=O)cc4)CC3)c2)CC1 (some centres unmarked) [TS529] | < 10 | < 75 | < 75 | – | –
18 | Cc1ccc(NC(=O)CCOCCOCCOCCNc2cccc3c2C(=O)N(C2CCC(=O)NC2=O)C3=O)cc1C(=O)N[C@H](C)c1cccc2ccccc12 (some centres unmarked) [TS128] | < 10 | < 0 | < 0 | – | –
19 | C[C@H](c1cccc2ccccc12)N1CCC(C(=O)NCc2cc(F)cc(NC(=O)N3CCN(CCCCCCCCOc4ccc5c(c4)C(=O)N(C4CCC(=O)NC4=O)C5=O)CC3)c2)CC1 (some centres unmarked) [TS516] | 10 to 25 | < 50 | > 75 | efficiently reduces viable virus | 4.4
